In ChEMBL document CHEMBL4507287, “Data for DCP probe MRL-650” (2021):

Key:
[1] = target: Dual specificity mitogen-activated protein kinase kinase 6 (Homo sapiens) (UniProt P52564); details: Compound concentration 1000.0 nM
[2] = target: Platelet-derived growth factor receptor alpha (Homo sapiens) (UniProt P16234); details: Compound concentration 1000.0 nM
[3] = target: Inhibitor of nuclear factor kappa-B kinase subunit beta (Homo sapiens) (UniProt O14920); details: Compound concentration 1000.0 nM
[4] = target: Serine/threonine-protein kinase 38-like (Homo sapiens) (UniProt Q9Y2H1); details: Compound concentration 1000.0 nM
[5] = target: Phosphatidylinositol 5-phosphate 4-kinase type-2 beta (Homo sapiens) (UniProt P78356); details: Compound concentration 1000.0 nM
[6] = target: Serine/threonine-protein kinase TAO1 (Homo sapiens) (UniProt Q7L7X3); details: Compound concentration 1000.0 nM
[7] = target: Serine/threonine-protein kinase 32B (Homo sapiens) (UniProt Q9NY57); details: Compound concentration 1000.0 nM
[8] = target: Mitogen-activated protein kinase 6 (Homo sapiens) (UniProt Q16659); details: Compound concentration 1000.0 nM
[9] = target: Cyclin-dependent kinase 5 (Homo sapiens) (UniProt Q00535); details: Compound concentration 1000.0 nM
[10] = target: Ephrin type-A receptor 1 (Homo sapiens) (UniProt P21709); details: Compound concentration 1000.0 nM
Chain of Ephrin type-A receptor 1 (Homo sapiens) (P21709 whole entry): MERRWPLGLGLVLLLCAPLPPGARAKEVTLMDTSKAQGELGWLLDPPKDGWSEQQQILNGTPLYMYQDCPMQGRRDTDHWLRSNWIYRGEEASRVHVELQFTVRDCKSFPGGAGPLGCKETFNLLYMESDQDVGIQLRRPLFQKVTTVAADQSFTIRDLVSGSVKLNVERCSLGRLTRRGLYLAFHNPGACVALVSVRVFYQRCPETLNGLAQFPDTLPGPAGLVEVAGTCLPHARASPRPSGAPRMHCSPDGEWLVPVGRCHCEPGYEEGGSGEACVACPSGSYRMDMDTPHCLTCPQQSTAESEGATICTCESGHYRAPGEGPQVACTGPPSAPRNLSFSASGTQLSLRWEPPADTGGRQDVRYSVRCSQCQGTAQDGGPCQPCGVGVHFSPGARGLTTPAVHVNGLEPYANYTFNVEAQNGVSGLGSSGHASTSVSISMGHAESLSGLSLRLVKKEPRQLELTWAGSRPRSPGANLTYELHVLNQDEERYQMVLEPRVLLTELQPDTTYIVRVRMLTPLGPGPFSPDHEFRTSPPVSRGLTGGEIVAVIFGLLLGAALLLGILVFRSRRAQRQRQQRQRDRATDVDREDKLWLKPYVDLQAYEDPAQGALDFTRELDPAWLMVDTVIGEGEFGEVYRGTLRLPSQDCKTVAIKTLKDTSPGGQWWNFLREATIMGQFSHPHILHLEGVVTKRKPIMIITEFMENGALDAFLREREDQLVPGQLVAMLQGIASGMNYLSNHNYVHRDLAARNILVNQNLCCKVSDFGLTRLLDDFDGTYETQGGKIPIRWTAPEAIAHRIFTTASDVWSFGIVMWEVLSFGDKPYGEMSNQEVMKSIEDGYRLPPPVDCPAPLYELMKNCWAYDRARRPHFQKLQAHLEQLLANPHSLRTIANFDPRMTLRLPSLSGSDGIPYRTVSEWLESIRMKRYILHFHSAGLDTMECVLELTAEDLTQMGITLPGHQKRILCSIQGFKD

[11] = target: Cyclin-dependent kinase 11A (Homo sapiens) (UniProt Q9UQ88); details: Compound concentration 1000.0 nM
Chain of Cyclin-dependent kinase 11A (Homo sapiens) (Q9UQ88 whole entry, canonical isoform): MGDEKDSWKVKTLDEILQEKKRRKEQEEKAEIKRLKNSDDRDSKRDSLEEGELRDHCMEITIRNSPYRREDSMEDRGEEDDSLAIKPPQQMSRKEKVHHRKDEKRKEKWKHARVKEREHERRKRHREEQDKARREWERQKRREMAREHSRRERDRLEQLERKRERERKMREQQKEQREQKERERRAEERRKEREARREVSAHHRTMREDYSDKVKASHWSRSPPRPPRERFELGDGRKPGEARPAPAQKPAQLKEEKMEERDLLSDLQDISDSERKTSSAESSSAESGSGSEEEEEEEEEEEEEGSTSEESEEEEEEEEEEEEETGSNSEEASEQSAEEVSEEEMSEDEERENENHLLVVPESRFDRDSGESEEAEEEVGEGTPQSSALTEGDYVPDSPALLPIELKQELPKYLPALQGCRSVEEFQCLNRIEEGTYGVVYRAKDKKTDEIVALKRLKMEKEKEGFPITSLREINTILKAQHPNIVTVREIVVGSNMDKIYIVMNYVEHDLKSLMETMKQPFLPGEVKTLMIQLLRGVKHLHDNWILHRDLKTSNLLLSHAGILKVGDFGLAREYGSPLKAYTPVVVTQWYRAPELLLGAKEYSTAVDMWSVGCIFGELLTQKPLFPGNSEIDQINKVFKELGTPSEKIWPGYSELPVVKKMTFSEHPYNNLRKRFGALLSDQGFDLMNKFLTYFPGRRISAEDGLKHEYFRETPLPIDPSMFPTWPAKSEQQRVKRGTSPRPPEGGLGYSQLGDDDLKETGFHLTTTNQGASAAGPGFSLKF

[12] = system: Phosphatidylinositol 4,5-bisphosphate 3-kinase catalytic subunit alpha isoform (Homo sapiens), P42336 [Q546K]; details: Compound concentration 1000.0 nM
[13] = target: Dual specificity tyrosine-phosphorylation-regulated kinase 1A (Homo sapiens) (UniProt Q13627); details: Compound concentration 1000.0 nM
[14] = system: Leucine-rich repeat serine/threonine-protein kinase 2 (Homo sapiens), Q5S007 [G2019S]; details: Compound concentration 1000.0 nM
[15] = target: Atypical kinase COQ8A, mitochondrial (Homo sapiens) (UniProt Q8NI60); details: Compound concentration 1000.0 nM
[16] = system: Epidermal growth factor receptor (Homo sapiens), P00533 [T790M]; details: Compound concentration 1000.0 nM
[17] = target: Serine/threonine-protein kinase 17A (Homo sapiens) (UniProt Q9UEE5); details: Compound concentration 1000.0 nM
[18] = target: Tyrosine-protein kinase ZAP-70 (Homo sapiens) (UniProt P43403); details: Compound concentration 1000.0 nM
Chain of Tyrosine-protein kinase ZAP-70 (Homo sapiens) (P43403 whole entry): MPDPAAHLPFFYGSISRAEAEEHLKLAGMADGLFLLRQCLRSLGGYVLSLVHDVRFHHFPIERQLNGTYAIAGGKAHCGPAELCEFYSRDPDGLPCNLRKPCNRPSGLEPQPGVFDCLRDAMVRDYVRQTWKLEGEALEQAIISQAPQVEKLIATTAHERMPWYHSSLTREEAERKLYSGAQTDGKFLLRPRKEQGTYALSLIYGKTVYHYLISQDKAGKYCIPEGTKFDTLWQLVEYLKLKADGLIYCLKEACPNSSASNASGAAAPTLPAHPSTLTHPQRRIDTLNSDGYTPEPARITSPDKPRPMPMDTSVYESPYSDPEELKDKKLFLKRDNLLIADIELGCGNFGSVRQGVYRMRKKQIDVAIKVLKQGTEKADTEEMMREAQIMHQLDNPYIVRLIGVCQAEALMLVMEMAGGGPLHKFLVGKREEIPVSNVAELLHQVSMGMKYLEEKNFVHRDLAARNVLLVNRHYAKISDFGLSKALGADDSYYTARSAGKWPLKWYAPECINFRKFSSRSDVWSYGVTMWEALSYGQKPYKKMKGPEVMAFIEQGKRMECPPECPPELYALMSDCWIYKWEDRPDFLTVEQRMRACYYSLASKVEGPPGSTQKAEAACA

[19] = target: Mitogen-activated protein kinase 13 (Homo sapiens) (UniProt O15264); details: Compound concentration 1000.0 nM
[20] = target: Activin receptor type-1B (Homo sapiens) (UniProt P36896); details: Compound concentration 1000.0 nM
[21] = system: Phosphatidylinositol 4,5-bisphosphate 3-kinase catalytic subunit alpha isoform (Homo sapiens), P42336 [E545A]; details: Compound concentration 1000.0 nM
[22] = target: Serine/threonine-protein kinase pim-2 (Homo sapiens) (UniProt Q9P1W9); details: Compound concentration 1000.0 nM
[23] = target: Serine/threonine-protein kinase MARK1 (Homo sapiens) (UniProt Q9P0L2); details: Compound concentration 1000.0 nM
[24] = target: Sigma non-opioid intracellular receptor 1 (Homo sapiens, UniProt Q99720); details: Compound concentration 10.0 uM
[25] = target: Serine/threonine-protein kinase 10 (Homo sapiens) (UniProt O94804); details: Compound concentration 1000.0 nM
Chain of Serine/threonine-protein kinase 10 (Homo sapiens) (O94804 whole entry, looked up): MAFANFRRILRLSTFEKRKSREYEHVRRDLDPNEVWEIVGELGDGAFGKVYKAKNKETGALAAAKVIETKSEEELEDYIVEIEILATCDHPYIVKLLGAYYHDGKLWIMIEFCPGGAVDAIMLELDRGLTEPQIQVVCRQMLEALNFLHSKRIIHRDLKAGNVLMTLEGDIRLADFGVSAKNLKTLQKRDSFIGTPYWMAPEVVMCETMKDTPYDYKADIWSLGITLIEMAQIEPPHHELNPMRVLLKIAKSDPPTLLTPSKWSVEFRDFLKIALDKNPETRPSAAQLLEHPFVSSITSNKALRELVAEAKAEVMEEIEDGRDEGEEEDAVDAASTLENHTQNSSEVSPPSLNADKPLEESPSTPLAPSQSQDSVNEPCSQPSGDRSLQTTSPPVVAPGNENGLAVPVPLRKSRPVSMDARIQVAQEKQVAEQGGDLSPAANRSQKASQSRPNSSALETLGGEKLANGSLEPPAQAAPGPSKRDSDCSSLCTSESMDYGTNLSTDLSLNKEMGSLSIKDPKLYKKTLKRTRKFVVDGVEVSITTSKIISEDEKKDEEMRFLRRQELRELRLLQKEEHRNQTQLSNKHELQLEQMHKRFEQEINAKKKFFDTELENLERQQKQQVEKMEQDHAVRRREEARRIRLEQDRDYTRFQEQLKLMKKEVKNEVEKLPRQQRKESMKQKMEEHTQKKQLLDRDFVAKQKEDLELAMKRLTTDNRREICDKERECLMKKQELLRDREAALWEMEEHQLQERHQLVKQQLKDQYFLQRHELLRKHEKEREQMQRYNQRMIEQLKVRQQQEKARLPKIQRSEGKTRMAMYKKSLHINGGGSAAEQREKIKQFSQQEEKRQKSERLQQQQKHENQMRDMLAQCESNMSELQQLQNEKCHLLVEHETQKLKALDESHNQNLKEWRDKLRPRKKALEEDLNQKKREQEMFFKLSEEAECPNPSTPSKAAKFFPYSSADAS

[26] = target: Serine/threonine-protein kinase 33 (Homo sapiens) (UniProt Q9BYT3); details: Compound concentration 1000.0 nM
[27] = system: Phosphatidylinositol 4,5-bisphosphate 3-kinase catalytic subunit alpha isoform (Homo sapiens), P42336 [I800L]; details: Compound concentration 1000.0 nM
[28] = target: Tyrosine-protein kinase ITK/TSK (Homo sapiens) (UniProt Q08881); details: Compound concentration 1000.0 nM
[29] = target: Serine/threonine-protein kinase SIK1 (Homo sapiens) (UniProt P57059); details: Compound concentration 1000.0 nM
[30] = target: Serine/threonine-protein kinase Nek1 (Homo sapiens) (UniProt Q96PY6); details: Compound concentration 1000.0 nM
[31] = target: Mitogen-activated protein kinase kinase kinase 6 (Homo sapiens) (UniProt O95382); details: Compound concentration 1000.0 nM
Rattus norvegicus = organism: Rattus norvegicus; details: Compound concentration 10.0 uM
[32] = target: Tyrosine-protein kinase receptor UFO (Homo sapiens) (UniProt P30530); details: Compound concentration 1000.0 nM
[33] = target: Ribosomal protein S6 kinase alpha-5 (Homo sapiens) (UniProt O75582); details: Compound concentration 1000.0 nM
[34] = target: Leukocyte tyrosine kinase receptor (Homo sapiens) (UniProt P29376); details: Compound concentration 1000.0 nM
[35] = target: Serine/threonine-protein kinase TBK1 (Homo sapiens) (UniProt Q9UHD2); details: Compound concentration 1000.0 nM
[36] = system: Tyrosine-protein kinase ABL1 (Homo sapiens), P00519 [Y253F]; details: Compound concentration 1000.0 nM
[37] = target: Tyrosine-protein kinase HCK (Homo sapiens) (UniProt P08631); details: Compound concentration 1000.0 nM
Chain of Tyrosine-protein kinase HCK (Homo sapiens) (P08631 2-526 limits assumed): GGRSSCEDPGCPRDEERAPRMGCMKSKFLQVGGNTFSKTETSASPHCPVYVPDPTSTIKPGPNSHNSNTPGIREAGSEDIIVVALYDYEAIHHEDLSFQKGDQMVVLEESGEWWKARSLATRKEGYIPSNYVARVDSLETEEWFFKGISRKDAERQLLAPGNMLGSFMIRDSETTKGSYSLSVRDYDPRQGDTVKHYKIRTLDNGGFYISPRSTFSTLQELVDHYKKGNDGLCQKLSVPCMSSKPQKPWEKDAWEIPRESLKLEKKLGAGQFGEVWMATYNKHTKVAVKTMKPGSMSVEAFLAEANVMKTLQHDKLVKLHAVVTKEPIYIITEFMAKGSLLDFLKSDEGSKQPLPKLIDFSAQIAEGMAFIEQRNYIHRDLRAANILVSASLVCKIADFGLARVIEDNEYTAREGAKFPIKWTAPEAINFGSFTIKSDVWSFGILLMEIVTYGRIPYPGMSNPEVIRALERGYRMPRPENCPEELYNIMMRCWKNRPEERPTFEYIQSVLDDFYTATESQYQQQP

[38] = target: Serine/threonine-protein kinase RIO1 (Homo sapiens) (UniProt Q9BRS2); details: Compound concentration 1000.0 nM
Chain of Serine/threonine-protein kinase RIO1 (Homo sapiens) (Q9BRS2 whole entry): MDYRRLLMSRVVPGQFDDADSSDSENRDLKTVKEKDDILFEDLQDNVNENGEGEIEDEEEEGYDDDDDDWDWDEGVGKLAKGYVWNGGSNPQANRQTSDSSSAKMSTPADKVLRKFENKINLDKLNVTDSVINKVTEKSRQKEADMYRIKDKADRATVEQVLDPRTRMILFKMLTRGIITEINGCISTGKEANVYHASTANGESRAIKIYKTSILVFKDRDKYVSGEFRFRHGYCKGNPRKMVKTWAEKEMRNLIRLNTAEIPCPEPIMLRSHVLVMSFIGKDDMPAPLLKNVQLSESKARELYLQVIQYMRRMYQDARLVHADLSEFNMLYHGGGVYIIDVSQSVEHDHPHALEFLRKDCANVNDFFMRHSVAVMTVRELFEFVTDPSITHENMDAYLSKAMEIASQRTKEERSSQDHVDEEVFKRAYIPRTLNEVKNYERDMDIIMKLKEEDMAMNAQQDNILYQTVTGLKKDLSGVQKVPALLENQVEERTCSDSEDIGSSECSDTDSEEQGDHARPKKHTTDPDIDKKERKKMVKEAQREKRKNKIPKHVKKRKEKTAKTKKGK

[39] = target: Tyrosine-protein kinase Mer (Homo sapiens) (UniProt Q12866); details: Compound concentration 1000.0 nM
[40] = target: LIM domain kinase 1 (Homo sapiens) (UniProt P53667); details: Compound concentration 1000.0 nM
[41] = target: Serine/threonine-protein kinase Nek5 (Homo sapiens) (UniProt Q6P3R8); details: Compound concentration 1000.0 nM
[42] = target: Casein kinase II subunit alpha (Homo sapiens) (UniProt P68400); details: Compound concentration 1000.0 nM
Chain of Casein kinase II subunit alpha (Homo sapiens) (P68400 whole entry, looked up): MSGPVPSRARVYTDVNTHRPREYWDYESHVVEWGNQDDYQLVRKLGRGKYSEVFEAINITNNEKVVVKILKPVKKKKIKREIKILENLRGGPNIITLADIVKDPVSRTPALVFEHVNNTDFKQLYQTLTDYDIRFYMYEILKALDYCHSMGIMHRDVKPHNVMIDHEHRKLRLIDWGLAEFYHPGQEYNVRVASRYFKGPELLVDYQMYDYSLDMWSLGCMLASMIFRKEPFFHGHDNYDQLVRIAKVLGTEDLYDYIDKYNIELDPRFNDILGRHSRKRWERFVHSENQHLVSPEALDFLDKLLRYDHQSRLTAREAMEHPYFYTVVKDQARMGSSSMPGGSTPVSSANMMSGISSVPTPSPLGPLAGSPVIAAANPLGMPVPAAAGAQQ

[43] = target: Serine/threonine-protein kinase MRCK alpha (Homo sapiens) (UniProt Q5VT25); details: Compound concentration 1000.0 nM
[44] = target: MAP/microtubule affinity-regulating kinase 3 (Homo sapiens) (UniProt P27448); details: Compound concentration 1000.0 nM

CC(=O)Nc1c(C(C)=O)c(=O)n(C)c2nc(-c3ccc(Cl)cc3Cl)c(-c3ccc(Cl)cc3)cc12 [NAPHTHYRIDINONE]
residual activity [1]: 100% | residual activity [2]: 100% | residual activity [3]: 100% | residual activity [4]: 87% | residual activity [5]: 91% | residual activity [6]: 89% | residual activity [7]: 100% | residual activity [8]: 100% | residual activity [9]: 100% | residual activity [10]: 100% | residual activity [11]: 100% | residual activity [12]: 100% | residual activity [13]: 100% | residual activity [14]: 100% | residual activity [15]: 100% | residual activity [16]: 100% | residual activity [17]: 100% | residual activity [18]: 100% | residual activity [19]: 100% | residual activity [20]: 94% | residual activity [21]: 85% | residual activity [22]: 100% | residual activity [23]: 100% | inhibition [24]: 50% | residual activity [25]: 100% | residual activity [26]: 100% | residual activity [27]: 58% | residual activity [28]: 100% | residual activity [29]: 100% | residual activity [30]: 100% | residual activity [31]: 94% | inhibition (Rattus norvegicus): 82.7% | residual activity [32]: 100% | residual activity [33]: 100% | residual activity [34]: 100% | residual activity [35]: 81% | residual activity [36]: 96% | residual activity [37]: 100% | residual activity [38]: 100% | residual activity [39]: 100% | residual activity [40]: 100% | residual activity [41]: 100% | residual activity [42]: 100% | residual activity [43]: 100% | residual activity [44]: 100%

CC(=O)c1c(NS(C)(=O)=O)c2cc(-c3ccc(Cl)cc3)c(-c3ccc(Cl)cc3Cl)nc2n(C)c1=O [MRL-CB1-NC]
residual activity [1]: 100% | residual activity [2]: 88% | residual activity [3]: 98% | residual activity [4]: 76% | residual activity [5]: 65% | residual activity [6]: 92% | residual activity [7]: 89% | residual activity [8]: 100% | residual activity [9]: 100% | residual activity [10]: 100% | residual activity [11]: 98% | residual activity [12]: 86% | residual activity [13]: 77% | residual activity [14]: 100% | residual activity [15]: 100% | residual activity [16]: 64% | residual activity [17]: 88% | residual activity [18]: 100% | residual activity [19]: 97% | residual activity [20]: 92% | residual activity [21]: 100% | residual activity [22]: 100% | residual activity [23]: 100% | inhibition [24]: -7.46% | residual activity [25]: 100% | residual activity [26]: 100% | residual activity [27]: 64% | residual activity [28]: 97% | residual activity [29]: 100% | residual activity [30]: 100% | residual activity [31]: 83% | inhibition (Rattus norvegicus): 36.9% | residual activity [32]: 100% | residual activity [33]: 100% | residual activity [34]: 100% | residual activity [35]: 92% | residual activity [36]: 94% | residual activity [37]: 100% | residual activity [38]: 100% | residual activity [39]: 100% | residual activity [40]: 88% | residual activity [41]: 100% | residual activity [42]: 92% | residual activity [43]: 95% | residual activity [44]: 100%
